# According to patent US20250230165A1, “HETEROCYCLIC COMPOUNDS FOR USE IN THE TREATMENT OF CANCER” (ARTIOS PHARMA LIMITED, priority 2021, published 2025):
# Molecular target: T1, Human Polθ polymerase domain (aa1820-2590) (Homo sapiens, UniProt O75417)
# T1 construct: Human Polθ polymerase domain (aa1820-2590) was expressed in E. coli; made in house; host or cells: E. coli
# T1 sequence (O75417 1820-2590): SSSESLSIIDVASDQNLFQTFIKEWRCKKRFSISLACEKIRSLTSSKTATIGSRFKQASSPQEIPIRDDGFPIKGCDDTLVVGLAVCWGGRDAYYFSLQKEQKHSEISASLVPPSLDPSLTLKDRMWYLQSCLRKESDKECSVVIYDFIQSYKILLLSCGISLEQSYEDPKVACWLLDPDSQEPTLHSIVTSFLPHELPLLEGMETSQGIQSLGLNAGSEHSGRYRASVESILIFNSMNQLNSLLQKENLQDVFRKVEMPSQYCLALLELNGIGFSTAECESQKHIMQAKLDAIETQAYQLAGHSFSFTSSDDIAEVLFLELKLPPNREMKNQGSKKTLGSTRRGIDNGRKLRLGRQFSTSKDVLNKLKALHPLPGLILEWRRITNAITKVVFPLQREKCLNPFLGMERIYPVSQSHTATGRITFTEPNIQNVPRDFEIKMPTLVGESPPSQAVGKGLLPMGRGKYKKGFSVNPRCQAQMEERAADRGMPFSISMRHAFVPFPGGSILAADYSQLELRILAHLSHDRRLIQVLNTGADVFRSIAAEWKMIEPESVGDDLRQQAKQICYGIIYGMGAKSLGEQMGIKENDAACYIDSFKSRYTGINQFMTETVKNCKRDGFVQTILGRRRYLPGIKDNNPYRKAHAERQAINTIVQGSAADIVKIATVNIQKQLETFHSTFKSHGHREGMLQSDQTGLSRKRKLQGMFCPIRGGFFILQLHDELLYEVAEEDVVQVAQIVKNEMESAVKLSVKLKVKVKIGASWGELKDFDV
# Test: Polθ Polymerase Domain Kinact/KI Assay (PicoGreen)
# Format: biochemical
# Conditions: 0.8 nM Polθ, 100 nM DNA substrate, kobs vs [I] fit for 2-step covalent inhibitor
# Procedure, shortened: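 Covalent inhibitors were tested against E. coli-expressed enzyme (0.8 nM final) with 100 nM annealed DNA substrate and […] in Tris pH 7.5 buffer, 1% DMSO. Reactions were EDTA-quenched over a 0–60 min time course and product DNA detected by PicoGreen fluorescence.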
row,SMILES,Kinact/Kl
1,"C=C(CN(C)C)C(=O)N1CC(C2CCC(CN3C[C@H]4CC(=O)N(c5cc(C(F)(F)F)cc(C)n5)[C@@H]4C(=O)N(C)c4cccc(Cl)c43)CC2)C1 (stereo partly drawn) [Example 160, (3aR,11aS)-6-chloro-5-((4-(1-(2-((dimethylamino)methyl)acryloyl)azetidin-3-yl)cyclohexyl)methyl)-10-methyl-1-(6-methyl-4-(trifluoromethyl)pyridin-2-yl)-1,3a,4,5,10,11a-hexahydro-2H-benzo[b]pyrrolo[2,3-f][1,4]diazocine-2,11(3H)-dione]",2.3e+06 M⁻¹ s⁻¹
2,"C=C(CN(C)C)C(=O)N1CC(CCCCN2C[C@H]3CC(=O)N(c4cc(C(F)(F)F)cc(C)n4)[C@@H]3C(=O)N(C)c3cccc(Cl)c32)C1 [Example 161, (3aR, 11aS)-6-chloro-5-(4-(1-(2-((dimethylamino)methyl)acryloyl)azetidin-3-yl)butyl)-10-methyl-1-(6-methyl-4-(trifluoromethyl)pyridin-2-yl)-1,3a,4,5,10,11a-hexahydro-2H-benzo[b]pyrrolo[2,3-f][1,4]diazocine-2,11(3H)-dione]",5.08e+06 M⁻¹ s⁻¹
3,"C=C(CN(C)C)C(=O)N1CC(COCCN2C[C@H]3CC(=O)N(c4cc(C(F)(F)F)cc(C)n4)[C@@H]3C(=O)N(C)c3cccc(Cl)c32)C1 [Example 162, (3aR,11aS)-6-chloro-5-(2-((1-(2-((dimethylamino)methyl)acryloyl)azetidin-3-yl)methoxy)ethyl)-10-methyl-1-(6-methyl-4-(trifluoromethyl)pyridin-2-yl)-1,3a,4,5,10,11a-hexahydro-2H-benzo[b]pyrrolo[2,3-f][1,4]diazocine-2,11(3H)-dione]",2.95e+06 M⁻¹ s⁻¹
4,"C=C(CN(C)C)C(=O)N1Cc2ccc(CN3C[C@H]4CC(=O)N(c5cc(C(F)(F)F)cc(C)n5)[C@@H]4C(=O)N(C)c4cccc(Cl)c43)cc2C1 [Example 163, (3aR,11aS)-6-chloro-5-((2-(2-((dimethylamino)methyl)acryloyl)isoindolin-5-yl)methyl)-10-methyl-1-(6-methyl-4-(trifluoromethyl)pyridin-2-yl)-1,3a,4,5,10,11a-hexahydro-2H-benzo[b]pyrrolo[2,3-f][1,4]diazocine-2,11(3H)-dione]",1.82e+06 M⁻¹ s⁻¹
5,"C=C(CN(C)C)C(=O)NC12CC(CN3C[C@H]4CC(=O)N(c5cc(C(F)(F)F)cc(C)n5)[C@@H]4C(=O)N(C)c4cccc(Cl)c43)(C1)C2 [Example 164, N-(3-(((3aR,11aS)-6-chloro-10-methyl-1-(6-methyl-4-(trifluoromethyl)pyridin-2-yl)-2,11-dioxo-1,2,3,3a,4, 10,11,11a-octahydro-5H-benzo[b]pyrrolo[2,3-f][1,4]diazocin-5-yl)methyl)bicyclo[1.1.1]pentan-1-yl)-2-((dimethylamino)methyl) acrylamide]",2.38e+06 M⁻¹ s⁻¹
6,"C=C(C)C(=O)N1CC(OCCCN2C[C@H]3CC(=O)N(c4cc(C(F)(F)F)cc(C)n4)[C@@H]3C(=O)N(C)c3cccc(Cl)c32)C1 [Example 165, (3aR,11aS)-6-chloro-5-(3-((1-methacryloylazetidin-3-yl)oxy)propyl)-10-methyl-1-(6-methyl-4-(trifluoromethyl)pyridin-2-yl)-1,3a,4,5,10,11a-hexahydro-2H-benzo[b]pyrrolo[2,3-f][1,4]diazocine-2,11(3H)-dione]",1.18e+06 M⁻¹ s⁻¹
7,"C=C(CN(CC)CC)C(=O)N1CC(OCCCN2C[C@H]3CC(=O)N(c4cc(C(F)(F)F)cc(C)n4)[C@@H]3C(=O)N(C)c3cccc(Cl)c32)C1 [Example 166, (3aR, 11aS)-6-chloro-5-(3-((1-(2-((diethylamino)methyl)acryloyl)azetidin-3-yl)oxy)propyl)-10-methyl-1-(6-methyl-4-(trifluoromethyl)pyridin-2-yl)-1,3a,4,5,10,11a-hexahydro-2H-benzo[b]pyrrolo[2,3-f][1,4]diazocine-2,11(3H)-dione]",3.41e+06 M⁻¹ s⁻¹
8,"C=C(CN1CCN(C)CC1)C(=O)N1CC(CCCCN2C[C@H]3CC(=O)N(c4cc(C(F)(F)F)cc(C)n4)[C@@H]3C(=O)N(C)c3cccc(Cl)c32)C1 [Example 167, (3aR,11aS)-6-chloro-10-methyl-1-(6-methyl-4-(trifluoromethyl)pyridin-2-yl)-5-(4-(1-(2-((4-methylpiperazin-1-yl)methyl)acryloyl)azetidin-3-yl)butyl)-1,3a,4,5,10,11a-hexahydro-2H-benzo[b]pyrrolo[2,3-f][1,4]diazocine-2,11(3H)-dione]",4.66e+06 M⁻¹ s⁻¹
9,"C=C(CO)C(=O)N1CCC(CCCN2C[C@H]3CC(=O)N(c4cc(C(F)(F)F)cc(C)n4)[C@@H]3C(=O)N(C)c3cccc(Cl)c32)CC1 [Example 168, (3aR,11aS)-6-chloro-5-(3-(1-(2-(hydroxymethyl)acryloyl)piperidin-4-yl)propyl)-10-methyl-1-(6-methyl-4-(trifluoromethyl)pyridin-2-yl)-1,3a,4,5,10,11a-hexahydro-2H-benzo[b]pyrrolo[2,3-f][1,4]diazocine-2,11(3H)-dione]",1.97e+06 M⁻¹ s⁻¹
10,"Cc1cc(C(F)(F)F)cc(N2C(=O)C[C@@H]3CN(CCCOC4CN(C(=O)/C=C/CN(C)C)C4)c4c(C)cccc4N(C)C(=O)[C@H]32)n1 [Example 169, (3aR,11aS)-5-(3-((1-((E)-4-(dimethylamino)but-2-enoyl)azetidin-3-yl)oxy)propyl)-6,10-dimethyl-1-(6-methyl-4-(trifluoromethyl)pyridin-2-yl)-1,3a,4,5,10,11a-hexahydro-2H-benzo[b]pyrrolo[2,3-f][1,4]diazocine-2,11(3H)-dione]",2.69e+06 M⁻¹ s⁻¹
11,"C=CC(=O)N1CCn2nc(CN3C[C@H]4CC(=O)N(c5cc(C(F)(F)F)cc(C)n5)[C@@H]4C(=O)N(C)c4cccc(C)c43)cc2C1 [Example 173, (3aR,11aS)-5-((5-acryloyl-4,5,6,7-tetrahydropyrazolo [1,5-a]pyrazin-2-yl)methyl)-6,10-dimethyl-1-(6-methyl-4-(trifluoro-methyl)pyridin-2-yl)-1,3a,4,5,10, 11a-hexahydro-2H-benzo[b]pyrrolo [2,3-f][1,4]diazo-cine-2,11(3H)-dione]",2.92e+06 M⁻¹ s⁻¹
12,"C=CC(=O)NC12CC(CN3C[C@H]4CC(=O)N(c5cc(C(F)(F)F)cc(C)n5)[C@@H]4C(=O)N(C)c4cccc(C)c43)(C1)C2 [Example 174, N-(3-(((3aR,11aS)-6,10-dimethyl-1-(6-methyl-4-(tri-fluoromethyl)pyr-idin-2-yl)-2,11-dioxo-1,2,3,3a,4, 10,11,11a-octa-hydro-5H-benzo [b]pyrrolo[2,3-f] [1,4]diazocin-5-yl)methyl)bicyclo [1.1.1]pentan-1-yl)acrylamide]",1.08e+06 M⁻¹ s⁻¹
13,"C=CC(=O)NCC12CC(CN3C[C@H]4CC(=O)N(c5cc(C(F)(F)F)cc(C)n5)[C@@H]4C(=O)N(C)c4cccc(C)c43)(C1)C2 [Example 175, N-((3-(((3aR,11aS)-6,10-dimethyl-1-(6-methyl-4-(tri-fluoromethyl)pyr-idin-2-yl)-2,11-dioxo-1,2,3,3a,4, 10,11,11a-octa-hydro-5H-benzo [b]pyrrolo[2,3-f] [1,4]diazocin-5-yl)methyl)bicyclo [1.1.1]pentan-1-yl)-methyl)acrylamide]",370000 M⁻¹ s⁻¹
